# Structures can show the parent of a compound that is named as a salt.
row,melting point,SMILES
1,120 to 130 °C (dec.),CC(C)(CNC(=O)c1ccc(Oc2ccc(C#N)cc2)cc1)NC[C@H](O)COc1cccc2[nH]c3ccccc3c12 (as salt: HCl)
2,57 to 61 °C (dec.),CCOC(=O)COc1ccc(OCCNC[C@H](O)COc2cccc3[nH]c4ccccc4c23)cc1 (as salt: HCl)
